From US20240382564A1, “Methods and Compositions for Treating Muscular Dystrophy and Memory Impairment” (Allysta Pharmaceuticals, Inc., priority 2023, published 2024)
Where no end group is shown, it is not given here. [ ]: non-standard residue; d: D form. Nva = CCC[C@H](N)C(=O)O

Key:
Format in all cases: in vivo, mouse
[1] = tested on: D2.mdx mice; experiment: Mitochondrial H2O2 emission in permeabilized muscle fibre bundles
Experimental: (§1) D2.mdx mice were treated with ALY688 at two different dosages; high dose (HD; 15 mg/kg body weight/day) or low dose (LD; 3 mg/kg body weight/day) dissolved in saline. A separate group of mice were treated with saline alone (VEH, vehicle). Treatment was provided via subscapular subcutaneous injections from 7 days of age to 28-30 days. […] At 28-30 days of age, mice were anaesthetized with isoflurane vaporized in medical air (21% oxygen) at a 2 L/min flow rate. Due to tissue limitations in limb muscle, certain measures were performed separately in tibialis anterior and quadriceps across several phases of breeding. Following the treatment protocol, in situ quadriceps force assessments were then performed in one limb followed by removal of the quadriceps from the other limb for mitochondrial assessments, diaphragm for in vitro force assessments and finally other tissues for further processing as described below. Muscle and visceral organs weights were normalized to tibia length. Tissue collected from the first phase were utilized in force, histological, mitochondrial measures (respiration, mH2O2 and calcium retention capacity) and western analyses (diaphragm and quadriceps only). A second phase was then collected and utilized for cytokine profiling, qPCR analyses and additional westerns (TA only). Serum was collected from both phase 1 and 2 and utilized for serum CK analysis. All animals were utilized in in vivo functional assays (grip strength, cage hang time and voluntary wheel running).
The quadriceps from the non-stimulated limb and the diaphragm were collected and quickly placed in a buffer containing (in mM) 50 MES Hydrate, 7.23 K2EGTA, 2.77 CaK2EGTA, 20 imidazole, 0.5 dithiothreitol, 20 taurine, 5.77 ATP, 15 PCr, and 6.56 MgCl2·6H2O (pH 7.1). Both muscles were trimmed of connective tissue and fat and separated along the longitudinal axis into small bundles weighing approximately 1.0-2.5 mg wet weight for respiration and mH2O2 and 0.5-1.5 mg wet weight for calcium retention capacity. Bundles were permeabilized with […] saponin (Sigma Aldrich; St. Louis, MI, USA) in BIOPS on a platform rotor for 30 minutes at 4° C. The permeabilized bundles were then transferred to wash buffers to remove saponin as follows: MiRO5 for mitochondrial respiration, Buffer Z for mitochondrial H2O2 emission (mH2O2), and Buffer Y for calcium retention capacity. The composition of each buffer has been described previously. Fibres prepared for pyruvate-supported mitochondrial H2O2 emission (mH2O2) were permeabilized in the presence of 35 μM 2,4-dinitrochlorobenzene (CDNB) to deplete glutathione and enhance the detection of mH2O2. All bioenergetic assays were performed within 4 hours of washing to maintain fibre viability.
Briefly, mH2O2 was determined spectrofluorometrically (QuantaMaster 40, HORIBA Scientific, Irvine, CA, USA) utilizing Buffer Z containing 10 μM Amplex Ultra Red (Life Technologies; Carlsbad, CA, USA), 1 U/mL horseradish peroxidase, 1 mM EGTA, 40 U/mL Cu/Zn SOD1, 5 μM blebbistatin and 20 mM Cr. […] The ability of ADP to suppress mH2O2 was assessed with a titration of physiological concentrations (25, 100) and saturating for oxidant generation (500 μM). […] The rate of mH2O2 emission was calculated using a standard curve under the same assay conditions and then normalized to fibre bundle dry weight.

[2] = tested on: D2.mdx mice; experiment: Muscle cytokine mRNA by quantitative PCR
Experimental: as §1
Samples were lysed using TRIzol reagent and RNA was separated to aqueous phase using chloroform. The aqueous layer containing RNA was then mixed with isopropanol and loaded to Aurum Total RNA Mini Kit columns (Bio-Rad, Mississauga, ON, Canada). Total RNA was then extracted according to the manufacturer's instructions and concentration was assessed on the nanodrop attachment for the Varioskan LUX Multimode Microplate reader (Thermo Scientific). Reverse transcription of RNA into cDNA was performed by M-MLV reverse transcriptase and oligo (dT) primers (Qiagen). cDNA was then amplified in a CFX384 Touch Real-Time PCR Detection Systems (Bio-Rad) with a SYBR Green master mix and specific primers. Standard curves were created by plotting log DNA concentrations against Ct values from a 1:5 serial dilutions with CFX Manager Software. Gene expression was normalized to a Rplp0 control, and relative differences were determined using the ΔΔCt method Values are presented as fold increases relative to WT group.

[3] = tested on: D2.mdx mice; experiment: Functional assays (grip strength, cage hang time, voluntary wheel running) and serum creatine kinase
Experimental: as §1
Voluntary wheel running, cage hang time and forelimb grip strength were assessed two days before sacrifice. Serum derived from cardiac puncture at the time of sacrifice were assessed spectrofluorometrically for creatine kinase activity (U/L).

[4] = tested on: D2.mdx mice; experiment: Muscle cytokine protein profiling (LEGENDplex); settings: HD
Experimental: as §1
Tibialis anterior and diaphragm samples were homogenized in lysis buffer containing (in mM) (20 Tris/HCl, 150 NaCl, 1 EDTA, 1 EGTA, 1% Triton X-100, 2.5 Na4O7P2, 1 Na3VO4, pH 7.0) supplemented with protease (Roche) and phosphatase inhibitors (Sigma). Samples were diluted two-fold in the assay buffer before loading to the plates with beads. According to the manufacturer's instructions, levels of TGF-β, TNF-α, IL-1β, IL-6 and IL-10 in the homogenates were measured using LEGENDplex™ Mouse Custom Panel. Assay was performed in the Attune NxT flow cytometer (Thermo Fisher). The FCS files generated on the flow cytometer were analyzed using the LEGENDplex™ cloud-based analysis software.

Substance: [dN]IP[Nva]LY[dS]FA[dS]-NH2 [ALY688]
- mitochondrial responsiveness to ADP (pyruvate/malate-supported mH2O2 emission) ([1]; diaphragm, HD): completely preserved
- reduction of pyruvate/malate-supported mH2O2 emission ([1]; diaphragm, HD, across ADP concentrations): 8.7 to 70.7%
- succinate-induced mH2O2 emission ([1]; diaphragm, absence and presence of creatine, LD and HD): no effect of either drug dose
- attenuation of succinate-induced mH2O2 emission ([1]; quadriceps, both doses, absence and presence of creatine): 11.3 to 73.6%
- attenuation of pyruvate/malate-supported mH2O2 emission ([1]; quadriceps, both doses, across ADP concentrations): 45.9 to 62.3%
- IL-10 mRNA content ([2]; diaphragm, HD): not different between groups
- TGF-β mRNA contents ([2]; diaphragm, HD): unchanged in all groups
- TNF-α mRNA content ([2]; diaphragm, HD): not different between groups
- IL-1β mRNA ([2]; diaphragm, HD vs VEH): not affected by the drug
- IL-6 mRNA content ([2]; diaphragm, HD, increase in VEH attenuated): 51.8 % increase vs WT
- attenuation of TNF-α mRNA compared to VEH ([2]; tibialis anterior, HD): 41.4%
- serum creatine kinase ([3]; D2.mdx groups): 3.1-to-5.2 fold increase vs WT
- grip strength, cage hang time and voluntary wheel running, comparison between D2.mdx groups ([3]; VEH, LD, HD): similar
- grip strength, cage hang time and voluntary wheel running ([3]; all D2.mdx groups): −15.1% to −91.0
- serum creatine kinase ([3]; low dose vs other D2.mdx groups): increases seen with the low dose
- IL-6 protein content ([4]; diaphragm): 69.1 % increase vs VEH
- IL-10 protein content ([4]; diaphragm): not different between groups
- TGF-β protein content ([4]; diaphragm): 20.3 % increase vs VEH
- TNF-α protein content ([4]; diaphragm): not different between groups
- prevention of the increase in TNF-α protein content ([4]; tibialis anterior, VEH 40.6 pg/ml, not detectable in wildtype): 83.9%
